Source: patent US20220241308A1, “NEURONAL FUNCTION MODULATING AGENT” (University of Tsukuba, priority 2019, published 2022)

Key:
Type in all cases: cell-based
[1] = system: AKT1 (AKT serine/threonine kinase 1); assay: Gene expression experiment (real-time PCR) in SH-SY5Y cells: AKT1; conditions: for expression of AKT1: 24 h
Procedure: (§1) SH-SY5Y cells were seeded in 100 mm-cell dishes (BD Biocoat) at concentrations of 3.7×10^5 cells/mL (10 mL/dish) and cultured for 24 h at 37° C. and 5% CO2. Culture medium used was F12/DMEM (Gibco) supplemented with 1% non-essential amino acids (Gibco), 15% FBS (Bio West), and 1% penicillin/streptomycin (Lonza). After 24 h, the culture medium was completely removed with an aspirator, 10 mL of culture medium Opti-MEM(Gibco) was added to each dish, and the cells were cultured for 24 h at 37° C. and 5% CO2. RNA was extracted from the culture cells and analyzed for the expression of genes described below by real-time PCR (designated as “Control” in FIGS. 2 to 8).
(§2) RNA extraction was performed using ISOGEN Reagent (Nippon Gene Co., Ltd.) in accordance with the protocol recommended by Nippo n Gene Co., Ltd. (see URL: https://www.nippongene.com/siyaku/product/extraction/tds/tds_isogen-rna-dna-protein.pdf). Real-time PCR was performed according to the protocol recommended by Thermo Fisher Scientific using a reagent kit for TaqMan Real-Time PCR (Thermo Fisher Scientific) (see URL: https://assets.thermofisher.com/TFS-Assets/LSG/manuals/4304449_TaqManPCRMM_UG.pdf).
(§3) 24 h after seeding 100 mm-cell dishes (BD Biocoat) with SH-SY5Y cells, the culture medium was completely removed with an aspirator, amyloid β protein (Beta-Amyloid 1-42, AnaSpec) was mixed with Opti-MEM (Gibco) so that the final concentration was 5 μM, 10 mL of the mixture was added to each dish, the cells were cultured for 24 h at 37° C. and 5% CO2, and RNA was extracted. Except for performing the procedure described above, gene expression was analyzed as described above (designated as “Aβ” in FIGS. 2 to 8).
(§4) 24 h after seeding 100 mm-cell dishes (BD Biocoat) with SH-SY5Y cells, the culture medium was completely removed with an aspirator, Sample 1 was mixed with culture medium Opti-MEM(Gibco) so that the final concentration was 12.56 μM, 9,990 μL of the mixture was added to each dish and allowed to stand for 10 min, amyloid β protein (Beta-Amyloid 1-42, AnaSpec) was mixed with Opti-MEM (Gibco) so that the final concentration was […], 10 μL of the mixture was added to each well, the cells were cultured for 24 h at 37° C. and 5% CO2, and RNA was extracted. Except for performing the procedure described above, Gene expression was analyzed as described above (designated as “Aβ+M3,5G” in FIGS. 2 to 8).
(§5) Except that Sample 2 was used instead of Sample 1, gene expression was analyzed as described above (designated as “Aβ+M” in FIGS. 2 to 8).
(§6) Except that Sample 3 was used instead of Sample 1, gene expression was analyzed as described above (designated as “Aβ+M3G” in FIGS. 2 to 8).
(§7) 24 h after seeding 100 mm-cell dishes (BD Biocoat) with SH-SY5Y cells, the culture medium was completely removed with an aspirator, 10 mL of culture medium Opti-MEM(Gibco) mixed with Sample 1 was added to each dish, the cells were cultured for 24 h at 37° C. and 5% CO2, and RNA was extracted. Except for performing the procedure described above, gene expression was analyzed as described above (designated as “M3,5G” in FIGS. 2 to 8).

[2] = system: MAP2K4 (mitogen-activated protein kinase 4); assay: Gene expression experiment (real-time PCR) in SH-SY5Y cells: MAP2K4; conditions: for expression of MAP2K4: 24 h
Procedure: as §1, §2, §3, §4, §5, §6, §7

SH-SY5Y cells = assay: ATP production measurement experiment; conditions: 12.56 μM; 6 h, 12 h, 24 h; compared to “Control”
Procedure: Specifically, ATP production was measured according to the protocol recommended by Toyo B-NET (URL: https://search.cosmobio.co.jp/cosmo_search_p/search_gate2/docs/TIC_/CA10.20131125.pdf) using an ATP assay reagent (“Cell” ATP Assay reagent, Toyo B-NET) (designated as “Control” in FIG. 9).
Each well of a 96-well plate (BD Biocoat) was seeded with SH-SY5Y cells (model of neuronal cells, ATCC) at a concentration of 2×10^5 cells/mL (100 μL/well) and the cells were cultured at 37° C. and 5% CO2 for 24 h. Culture medium used was F12/DMEM (Gibco) supplemented with 1% non-essential amino acids (Gibco), 15% FBS (Bio West), and 1% penicillin/streptomycin (Lonza).
After 24 h, the culture medium was completely removed with an aspirator, 100 μL of culture medium Opti-MEM (Gibco) was added to each well, and the cells were cultured for 6 h, 12 h, and 24 h at 37° C. and 5% CO2. After each culturing time point, 100 μL of ATP assay reagent (“Cell” ATP Assay reagent, Toyo Ink)) was added to each well and mixed and the mixture was allowed to stand for reaction for 10 min at room temperature in dark conditions. […] Light emission after a lapse of a predetermined time was measured on a microplate reader (Sumitomo Dainippon Pharma) to find ATP production (designated as “Control” in FIG. 9). […]

[3] = 12.56 μM, amyloid β protein-treated cells, compared to “Aβ”
[4] = 12.56 μM, amyloid β protein-treated cells, compared to “Control”
[5] = Sample 1 alone, no amyloid β, compared to “Control”
[6] = amyloid β protein-treated cells, 12.56 μM, ranked against malvidin and malvidin-3-glucoside

SMILES: COc1cc(-c2[o+]c3cc(O)cc(OC4OC(CO)C(O)C(O)C4O)c3cc2OC2OC(CO)C(O)C(O)C2O)cc(OC)c1O (stereo not drawn) [M3,5G, Malvidin-3,5-diglucoside chloride]
- expression of AKT1 [1, 3]: significantly high
- expression of AKT1 [1, 4]: significantly high
- expression of AKT1 [1, 5]: significantly increased
- activity in increasing the expression of AKT1 [1, 6]: highest activity
- expression of MAP2K4 [2, 3]: significantly high
- expression of MAP2K4 [2, 4]: significantly high
- expression of MAP2K4 [2, 5]: significantly increased
- activity in increasing the expression of MAP2K4 [2, 6]: highest activity
- ATP production (SH-SY5Y cells): increased ATP production
